In patent US20230114264A1, “ACTIVATION OF LYTIC GENES IN CANCER CELLS” (priority 2020, published 2023):

Tested on: BGLF4
Assay: BGLF4 gRNA transfection into C666-1 cells, Western blotting
Type: cell-based, Epstein-Barr virus (EBV)
Details: FIG. 12B
Experimental: BGLF4 gRNAs were tested for triggering EBV reactivation in C666-1 cells expressing HA-dCas9-EGFP and 3×FLAG-pUFa-p65HSF1. Seven EBV genomic loci at the BGLF4 promoter were used to design the gRNAs for BGLF4 induction (gRNA (1), gRNA (2), gRNA (3), gRNA (4), gRNA (5), gRNA (6), and gRNA (7)). Individual BGLF4 gRNAs were transfected into cells and the induction of BGLF4 protein expression was studied by Western blotting. […] To study the combination effects of BGLF4 gRNAs, BGLF4 gRNAs were transfected into cells individually or in combination. […] As a positive control of EBV reactivation, the C666-1 cells were treated with the chemical inducer Gemcitabine to trigger EBV reactivation.

Nc1ccn([C@@H]2O[C@H](CO)[C@@H](O)C2(F)F)c(=O)n1 [Gemcitabine]
EBV reactivation (BZLF1 expression): implied the trigger of EBV reactivation
